Results taken from patent publication US12195427B2, “MASP-2 inhibitors and methods of use” (priority 2018, dated 2025).
Where a name gives a salt, the structure may show the parent alone.

Molecular target: MASP-2 CCP2-SP (Homo sapiens (Human), UniProt O00187)
Experiment: MASP-2 co-crystallization, X-ray crystallography and structure analysis (H-bonds, van der Waals contacts);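 on Ligand-pharmacophore element distance, pharmacophore element C2: distance from averaged pharmacophore element to bound ligand; missing value means element absent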;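 on Ligand-pharmacophore element distance, pharmacophore element C3: distance from averaged pharmacophore element to bound ligand; missing value means element absent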;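 on Ligand-pharmacophore element distance, pharmacophore element C4: distance from averaged pharmacophore element to bound ligand; missing value means element absent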;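 on Ligand-pharmacophore element distance, pharmacophore element C5: distance from averaged pharmacophore element to bound ligand; missing value means element absent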
Parameters: van der Waals contact distance, MASP-2 HIS 483 atom CD2 / van der Waals contact distance, MASP-2 HIS 483 atom NE2 / van der Waals contact distance, SER 654 C to compound atom / van der Waals contact distance, SER 654 O to compound atom / van der Waals contact distance, TRP 655 C to compound atom / van der Waals contact distance, MASP-2 GLY 528 atom CA / van der Waals contact distance TRP 655 atom CZ3 / van der Waals contact distance TRP 655 atom N / van der Waals contact distance TRP 655 atom CE3 / van der Waals contact distance GLY 656 atom C / van der Waals contact distance GLY 656 atom CA / van der Waals contact distance GLY 656 atom O / van der Waals contact distance, MASP-2 TYR 607 atom CD1 / van der Waals contact distance, MASP-2 PRO 606 atom O / d(C3,CA1) / d(CA1,N1)2 / d(H4,O1) / d(H4,O2) / d(O1,O2) / d(CA1,O2) / d(CA6,O1) / d(CA6,O2) / d(CA1,C5) / d(O2,H3) / d(N2,C2) / d(CA5,N2) / d(N2,C4) / d(N2,C6) / d(N2,CA3) / d(N2,O3) / d(O4,H2): unit not given beside the values
Details: for Ligand-pharmacophore element distance, pharmacophore element C2 / Ligand-pharmacophore element distance, pharmacophore element C3 / Ligand-pharmacophore element distance, pharmacophore element C4 / Ligand-pharmacophore element distance, pharmacophore element C5 / Ligand-pharmacophore element distance, pharmacophore element C6 / Ligand-pharmacophore element distance, pharmacophore element C7 / Ligand-pharmacophore element distance, pharmacophore element CA1 / Ligand-pharmacophore element distance, pharmacophore element CA2 / Ligand-pharmacophore element distance, pharmacophore element CA3 / Ligand-pharmacophore element distance, pharmacophore element CA4 / Ligand-pharmacophore element distance, pharmacophore element CA5 / Ligand-pharmacophore element distance, pharmacophore element CA6: Table A4-1; for d(C3,CA1) / d(CA1,N1)2 / d(CA1,O1) / d(CA1,O2) / d(H4,O1) / d(H4,O2) / d(O1,O2): Table A5-1 pharmacophore: distance between elements, S2/S1 region; for a(C3, CA1, O1) / a(CA1, O1, O2) / a(O1, O2, H4) / a(N1, CA1, O1) b): Table A6-1 pharmacophore angle; for a(N1, CA1, O1) b): Methyl-amino-pyridine compounds; for Pharmacophore torsion angle a(C3, CA1, O1, H4) / Pharmacophore torsion angle a(H4, O1, O2, H3) / Pharmacophore torsion angle a(H4, O1, O2, N2) / Pharmacophore torsion angle a(N1, CA1, O1, H4) / Pharmacophore torsion angle a(O1, H4, O2, CA1): Table A7-1
Method in brief: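 Contacts and H-bonds come from partially refined soaked-crystal structures of recombinant human CCP2-SP made in E. coli, solved by molecular replacement against 1Q3X fragments. Where several ligand poses appeared, only one was analysed; listed nonbonded contacts may include possible H-bond pairings.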

[1] = Table A5-2 pharmacophore distance, S3/S4 region
[2] = between pharmacophore elements of the bound compound
[3] = Table A7-2, between pharmacophore elements of the bound compound
[4] = Table A8-6, nearest protein atom in cell to the left

MASP-2 CCP2-SP, sequence (O00187 445-686): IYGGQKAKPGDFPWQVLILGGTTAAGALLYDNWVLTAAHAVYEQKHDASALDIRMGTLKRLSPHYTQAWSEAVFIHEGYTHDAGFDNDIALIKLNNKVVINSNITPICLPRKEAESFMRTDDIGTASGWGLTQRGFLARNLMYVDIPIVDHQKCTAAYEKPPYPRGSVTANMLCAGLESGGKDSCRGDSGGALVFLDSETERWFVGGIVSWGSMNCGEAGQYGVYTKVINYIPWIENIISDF
MASP-2 CCP2-SP, sequence (O00187 364-432 partner): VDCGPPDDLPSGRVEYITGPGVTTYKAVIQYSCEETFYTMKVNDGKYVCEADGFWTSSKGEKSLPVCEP

## Cc1nc(N)ccc1CNC(=O)[C@H](C)NC(=O)[C@H]1C[C@H](Cc2cccc(Cl)c2)CN1.Cl.Cl [1328_3]
  Ligand-pharmacophore element distance, pharmacophore element C2: 0
  Ligand-pharmacophore element distance, pharmacophore element C3: 0.21
  Ligand-pharmacophore element distance, pharmacophore element C4: 1.76
  Ligand-pharmacophore element distance, pharmacophore element C5: 0
  Ligand-pharmacophore element distance, pharmacophore element C6: 0
  Ligand-pharmacophore element distance, pharmacophore element C7: 0
  Ligand-pharmacophore element distance, pharmacophore element CA1: 0.4
  Ligand-pharmacophore element distance, pharmacophore element CA2: 0.48
  Ligand-pharmacophore element distance, pharmacophore element CA3: 0
  Ligand-pharmacophore element distance, pharmacophore element CA4: 0
  Ligand-pharmacophore element distance, pharmacophore element CA5: 0
  Ligand-pharmacophore element distance, pharmacophore element CA6: 0
  d(C3,CA1): 2.85
  d(CA1,N1)2: 1.38
  d(CA1,O1): 4.82
  d(CA1,O2): 3.89
  d(H4,O1): 3.99
  d(H4,O2): 2.55
  d(O1,O2): 3.40
  a(C3, CA1, O1): 150.74
  a(CA1, O1, O2): 97.62
  a(O1, O2, H4): 122.23
  a(N1, CA1, O1) b): 173.57
[1]
  d(N2,C4): 7.95
  d(N2,C4)4: 7.95
  d(N2,CA2): 6.00
  d(O2,H3): 4.77
  d(O2,N2): 2.77
Table A6-2 pharmacophore angle
  a(O1, O2, H3): 151.35
  a(O1, O2, N2): 139.67
  a(O2, N2, C4): 160.41
  a(O2, N2, C4) 2: 106.08
  a(O2, N2, CA2): 154.95
[2]
  Pharmacophore torsion angle a(C3, CA1, O1, H4): 57.52
  Pharmacophore torsion angle a(H4, O1, O2, H3): 47.98
  Pharmacophore torsion angle a(H4, O1, O2, N2): 130.71
  Pharmacophore torsion angle a(N1, CA1, O1, H4): 39.33
  Pharmacophore torsion angle a(O1, H4, O2, CA1): −87.28
[3]
  Pharmacophore torsion angle a(O1, O2, N2, CA2): 131.79

## Cc1nc(N)ccc1CNC(=O)[C@H](C)NC(=O)[C@H]1C[C@H](Cc2ccccc2-c2ccccc2)CN1 [compound 1373, (2R,4S)-4-([1,1′-Biphenyl]-2-ylmethyl)-N—((S)-1-(((6-amino-2-methylpyridin-3-yl)methyl)amino)-1-oxopropan-2-yl)pyrrolidine-2-carboxamide Di-trifluoroacetate salt]
Table A1 (H-Bonds), ASP 627 OD2
  H-bond distance to MASP-2 ASP 627 atom OD2: 3.21
Table A1 (H-Bonds), GLY 656 N
  H-bond distance to MASP-2 GLY 656 atom N: 3.2
Table A1 (H-Bonds), GLY 656 O
  H-bond distance to MASP-2 GLY 656 atom O: 2.76
Table A1 (H-Bonds), SER 628 O
  H-bond distance to MASP-2 SER 628 atom O: 3.18
Table A1 (H-Bonds), SER 654 O
  H-bond distance to MASP-2 SER 654 atom O: 3.04
Table A1 (H-Bonds), SER 657 O
  H-bond distance to MASP-2 SER 657 atom O: 2.89
Table A2-1
  van der Waals contact distance, MASP-2 HIS 483 atom CD2: 3.71
  van der Waals contact distance, MASP-2 HIS 483 atom NE2: 3.62
Table A2-2
  van der Waals contact distance, MASP-2 GLY 528 atom CA: 3.79
Table A2-7: SER 628 (CB, O, OG)
  van der Waals contact distance, MASP-2 amino acid atom to compound atom: 3.64
Table A2-11
  van der Waals contact distance, VAL 653 CG1 to compound atom: 3.34
Table A2-12
  van der Waals contact distance, SER 654 O to compound atom: 3.83
  van der Waals contact distance, TRP 655 CA to compound atom: 3.44
Table A2-13, MASP-2 TRP 655 CE3, compound atom in line below
  van der Waals contact distance TRP 655 atom CE3: 3.65
Table A2-13, MASP-2 TRP 655 CZ3
  van der Waals contact distance TRP 655 atom CZ3: 3.57
Table A2 section before Table A2-8
  van der Waals contact distance, MASP-2 amino acid atom to compound atom: 3.83
  Ligand-pharmacophore element distance, pharmacophore element C2: 0
  Ligand-pharmacophore element distance, pharmacophore element C3: 0.08
  Ligand-pharmacophore element distance, pharmacophore element C4: 0
  Ligand-pharmacophore element distance, pharmacophore element C5: 0
  Ligand-pharmacophore element distance, pharmacophore element C6: 0
  Ligand-pharmacophore element distance, pharmacophore element C7: 0
  Ligand-pharmacophore element distance, pharmacophore element CA1: 0.56
  Ligand-pharmacophore element distance, pharmacophore element CA2: 0.54
  Ligand-pharmacophore element distance, pharmacophore element CA3: 0
  Ligand-pharmacophore element distance, pharmacophore element CA4: 0
  Ligand-pharmacophore element distance, pharmacophore element CA5: 2.5
  Ligand-pharmacophore element distance, pharmacophore element CA6: 0
  d(C3,CA1): 2.85
  d(CA1,N1)2: 1.37
  d(CA1,O1): 4.41
  d(CA1,O2): 3.86
  d(H4,O1): 4.40
  d(H4,O2): 3.78
  d(O1,O2): 3.38
  a(C3, CA1, O1): 149.81
  a(CA1, O1, O2): 105.28
  a(O1, O2, H4): 131.90
  a(N1, CA1, O1) b): 174.08
[1]
  d(CA5,N2): 6.60
  d(N2,CA2): 6.03
  d(O2,H3): 4.31
  d(O2,N2): 2.65
Table A6-2 pharmacophore angle
  a(O1, O2, H3): 147.32
  a(O1, O2, N2): 141.07
  a(O2, N2, CA2): 156.78
[2]
  Pharmacophore torsion angle a(C3, CA1, O1, H4): 25.67
  Pharmacophore torsion angle a(H4, O1, O2, H3): 50.98
  Pharmacophore torsion angle a(H4, O1, O2, N2): 139.02
  Pharmacophore torsion angle a(N1, CA1, O1, H4): 4.28
  Pharmacophore torsion angle a(O1, H4, O2, CA1): −84.42
[3]
  Pharmacophore torsion angle a(O1, O2, N2, CA2): 127.58
  Pharmacophore torsion angle a(O1, O2, N2, CA5): 91.76

## C[C@H](NC(=O)[C@H](N)CCc1ccccc1)C(=O)NCc1ccc(N)nc1.Cl.Cl [1007_2]
  Ligand-pharmacophore element distance, pharmacophore element C2: 0
  Ligand-pharmacophore element distance, pharmacophore element C3: 0
  Ligand-pharmacophore element distance, pharmacophore element C4: 0
  Ligand-pharmacophore element distance, pharmacophore element C5: 0
  Ligand-pharmacophore element distance, pharmacophore element C6: 0
  Ligand-pharmacophore element distance, pharmacophore element C7: 0
  Ligand-pharmacophore element distance, pharmacophore element CA1: 0.59
  Ligand-pharmacophore element distance, pharmacophore element CA2: 0.86
  Ligand-pharmacophore element distance, pharmacophore element CA3: 0
  Ligand-pharmacophore element distance, pharmacophore element CA4: 0
  Ligand-pharmacophore element distance, pharmacophore element CA5: 0
  Ligand-pharmacophore element distance, pharmacophore element CA6: 0
  d(CA1,N1)2: 1.38
  d(CA1,O1): 4.52
  d(CA1,O2): 4.00
  d(H4,O1): 3.69
  d(H4,O2): 2.76
  d(O1,O2): 3.63
  a(CA1, O1, O2): 107.55
  a(O1, O2, H4): 113.36
  a(N1, CA1, O1) b): 174.22
[1]
  d(N2,CA2): 6.11
  d(O2,H3): 4.67
  d(O2,N2): 2.86
Table A6-2 pharmacophore angle
  a(O1, O2, H3): 145.74
  a(O1, O2, N2): 133.10
  a(O2, N2, CA2): 153.46
[2]
  Pharmacophore torsion angle a(H4, O1, O2, H3): 47.32
  Pharmacophore torsion angle a(H4, O1, O2, N2): 126.25
  Pharmacophore torsion angle a(N1, CA1, O1, H4): 48.80
  Pharmacophore torsion angle a(O1, H4, O2, CA1): −94.30
[3]
  Pharmacophore torsion angle a(O1, O2, N2, CA2): 131.44
Table A8-6, 6th residue column, nearest protein atom in cell to the left
  Pharmacophore protein distance to MET_658 (first MET_658 column): 2.59
Table A8-6, 9th residue column, nearest protein atom in cell to the left
  Pharmacophore protein distance to MET_658 (second MET_658 column): 3.37
[4]
  Pharmacophore protein distance to GLY_528: 3.72
  Pharmacophore protein distance to PHE_529: 3.20
  Pharmacophore protein distance to PRO_608: 3.12
  Pharmacophore protein distance to SER_611: 2.21
Table A8-6, pharmacophore elements C6, CA3, O3, H1, nearest protein atom in cell to the left
  Pharmacophore protein distance to TRP_655: 3.60
